The target in one data set is T1, GlyRα3 (Homo sapiens, UniProt O75311).
T1 construct: gene GLRA3; full-length, C-terminal thrombin site and 8x histidine tag, homopentamer in peptidisc (cryo-EM); full-length in Xenopus oocytes (TEVC)
T1 sequence (O75311 34-464): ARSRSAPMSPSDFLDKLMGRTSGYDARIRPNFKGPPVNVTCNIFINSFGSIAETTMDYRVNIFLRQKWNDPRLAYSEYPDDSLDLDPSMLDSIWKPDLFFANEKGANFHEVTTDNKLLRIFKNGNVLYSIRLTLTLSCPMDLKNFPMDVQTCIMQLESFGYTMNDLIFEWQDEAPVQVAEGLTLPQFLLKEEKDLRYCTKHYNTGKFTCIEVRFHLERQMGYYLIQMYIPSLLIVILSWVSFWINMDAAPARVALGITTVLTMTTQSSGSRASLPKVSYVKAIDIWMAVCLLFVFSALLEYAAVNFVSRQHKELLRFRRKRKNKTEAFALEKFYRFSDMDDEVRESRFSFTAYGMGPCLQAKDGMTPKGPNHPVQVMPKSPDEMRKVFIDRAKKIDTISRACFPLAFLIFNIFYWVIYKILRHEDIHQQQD
Briefly: cryo-EM structures with glycine density; EC50 by two-electrode voltage clamp in Xenopus oocytes. The class given is cell-based.

Data set [1] deals with the molecule itself. Briefly: cryo-EM structure; GlyRα3 in peptidisc, 0.3 to 1 mg/ml, 20 mM Hepes, 150 mM NaCl, pH 8.0 or pH 6.4; 0.1 or 1 mM glycine, without or with 1 or 100 μM ZnCl2; final maps refined with C5 symmetry.

For `NCC(=O)O` [glycine], it took 213 ± 13 µM to reach a half-maximal effect on GlyRα3 (EC50).

B1: full-length human GlyRα3 (receptor, UniProt O75311 34-464, looked up)
chain: T1 sequence (O75311 34-464)
notes: Glycine receptor subunit alpha-3, human, UniProt O75311, full-length codon-optimized GLRA3 gene; last residue printed as Asp431 on mature numbering; ICD Lys312-Arg385 not modelled in the maps; Homopentamer reconstituted in peptidisc (NSP peptide scaffold); the models are numbered without it; also called hGlyRα3; glycine receptor α3; source: Sf9 cells (baculovirus, pFastBac1), purified (DDM …)
B1: in data set [1], the stoichiometry N (in general, the number of molecules, sites or subunits per partner or assembly) was 5.

Source of the values: PMC11654702, “Mechanisms underlying modulation of human GlyRα3 by Zn^2+ and pH” (Science Advances, 2024).
